Source: PubChem BioAssay AID2060605 (Molecular Pharmacology Branch, DTP, NCI, 2025)

System: 947758-054-R-J2-PDC spheroid growth, percent test/control
Assay: Anticancer human tumor 947758-054-R-J2-PDC patient-derived colon adenocarcinoma cell line growth inhibition [CLK]
Conditions: spheroids with HUVEC and MSC; for IC50: curve of first compound; for viability, T/C: stronger effect = lower value
In short: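 Multi-cell-type spheroids combined patient-derived tumor cells with HUVEC endothelial cells and human mesenchymal stem cells. Paired agents were dosed in half-log steps down from about clinical Cmax, or from 10 microM where Cmax was unknown.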
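Further: spheroids exposed to compounds for one week before readout.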
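Wherever viability, T/C is given: 100% = DMSO vehicle control wells.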

Q: For `C=CC(=O)Nc1cc(Nc2nccc(-c3cn(C)c4ccccc34)n2)c(OC)cc1N(C)CCN(C)C` + CNC(=O)c1ccc(Nc2nc(OC3CCCC3)c3c(-c4ccc5nc(C)oc5c4)c[nH]c3n2)c(OC)c1, which IC50 (second compound 0.0316 µM) is on record?
A: > 300 nM

Q: What about the IC50 (second compound 0.1 µM) of the same molecule?
A: > 300 nM

Q: What about the IC50 (second compound 0.316 µM) of the same molecule?
A: 251 nM

Q: And the IC50 (second compound 1 µM)?
A: 122 nM

Q: And the IC50 (second compound 3.16 µM)?
A: < 0.949 nM

Q: And the IC50 (second compound 10 µM)?
A: < 0.949 nM

Q: What about the viability, T/C (second compound 0.0316 µM, first compound 0.000949 µM) of the same molecule?
A: 90%

Q: What about the viability, T/C (second compound 0.0316 µM, first compound 0.003 µM) of the same molecule?
A: 78.9%

Q: And the viability, T/C (second compound 0.0316 µM, first compound 0.00949 µM)?
A: 80.4%

Q: What about the viability, T/C (second compound 0.0316 µM, first compound 0.03 µM) of the same molecule?
A: 94.6%

Q: What about the viability, T/C (second compound 0.0316 µM, first compound 0.0949 µM) of the same molecule?
A: 86.2%

Q: What about the viability, T/C (second compound 0.0316 µM, first compound 0.3 µM) of the same molecule?
A: 64%

Q: What about the viability, T/C (second compound 0.1 µM, first compound 0.000949 µM) of the same molecule?
A: 102%

Q: What about the viability, T/C (second compound 0.1 µM, first compound 0.003 µM) of the same molecule?
A: 94.9%

Q: And the viability, T/C (second compound 0.1 µM, first compound 0.00949 µM)?
A: 83.7%

Q: What about the viability, T/C (second compound 0.1 µM, first compound 0.03 µM) of the same molecule?
A: 87.9%

Q: And the viability, T/C (second compound 0.1 µM, first compound 0.0949 µM)?
A: 78.1%

Q: What about the viability, T/C (second compound 0.1 µM, first compound 0.3 µM) of the same molecule?
A: 52.5%

Q: And the viability, T/C (second compound 0.316 µM, first compound 0.000949 µM)?
A: 88.2%

Q: What about the viability, T/C (second compound 0.316 µM, first compound 0.003 µM) of the same molecule?
A: 81.8%

Q: And the viability, T/C (second compound 0.316 µM, first compound 0.00949 µM)?
A: 65.8%

Q: And the viability, T/C (second compound 0.316 µM, first compound 0.03 µM)?
A: 96.3%

Q: And the viability, T/C (second compound 0.316 µM, first compound 0.0949 µM)?
A: 108%

Q: And the viability, T/C (second compound 0.316 µM, first compound 0.3 µM)?
A: 43.1%

Q: What about the viability, T/C (second compound 1 µM, first compound 0.000949 µM) of the same molecule?
A: 70.2%

Q: And the viability, T/C (second compound 1 µM, first compound 0.003 µM)?
A: 53.1%

Q: And the viability, T/C (second compound 1 µM, first compound 0.00949 µM)?
A: 47.1%

Q: And the viability, T/C (second compound 1 µM, first compound 0.03 µM)?
A: 52%

Q: What about the viability, T/C (second compound 1 µM, first compound 0.0949 µM) of the same molecule?
A: 62.8%

Q: And the viability, T/C (second compound 1 µM, first compound 0.3 µM)?
A: 25.4%

Q: And the viability, T/C (second compound 3.16 µM, first compound 0.000949 µM)?
A: 48.9%

Q: What about the viability, T/C (second compound 3.16 µM, first compound 0.003 µM) of the same molecule?
A: 44.4%

Q: And the viability, T/C (second compound 3.16 µM, first compound 0.00949 µM)?
A: 44.8%

Q: And the viability, T/C (second compound 3.16 µM, first compound 0.03 µM)?
A: 44%

Q: And the viability, T/C (second compound 3.16 µM, first compound 0.0949 µM)?
A: 39.5%

Q: What about the viability, T/C (second compound 3.16 µM, first compound 0.3 µM) of the same molecule?
A: 23.1%

Q: What about the viability, T/C (second compound 10 µM, first compound 0.000949 µM) of the same molecule?
A: 39.8%

Q: What about the viability, T/C (second compound 10 µM, first compound 0.003 µM) of the same molecule?
A: 39.5%

Q: What about the viability, T/C (second compound 10 µM, first compound 0.00949 µM) of the same molecule?
A: 42.7%

Q: What about the viability, T/C (second compound 10 µM, first compound 0.03 µM) of the same molecule?
A: 35.2%

Q: What about the viability, T/C (second compound 10 µM, first compound 0.0949 µM) of the same molecule?
A: 20.9%

Q: What about the viability, T/C (second compound 10 µM, first compound 0.3 µM) of the same molecule?
A: 18.3%
